Reference: paper PMC9317316, “Synthesis and Evaluation of Some New 4H-Pyran Derivatives as Antioxidant, Antibacterial and Anti-HCT-116 Cells of CRC, with Molecular Docking, Antiproliferative, Apoptotic and ADME Investigations” (Pharmaceuticals, 2022)
Where “and” joins values, the source holds several entries; their conditions need not be identical. Equal values may be shown once. Read-outs that look alike come from different tables or passages of the source.

What was measured:
[1] = DPPH radical scavenging assay; settings: for IC50: 0.03 to 1 mg/mL, 1 h, mean ± SD, triplicate, read-out: IC50 (mM) for DPPH Scavenging Potency
Experimental: The IC50 values for DPPH were calculated from the plot of the scavenging effect against the compound concentration.
The compounds’ capacities to scavenge the stable radical 1,1 diphenyl-2-picrylhydrazyl (DPPH) formed in solution by donation of a hydrogen atom or an electron was investigated according to the method described by Bersuder and coworkers. Due to the fact that the initial blue/purple solution of diphenyl picrylhydrazine changes to yellow in the presence of compounds with a capacity to scavenge DPPH free radicals, this reaction is used as a measure of a compound’s ability to scavenge any free radical. Briefly, a 0.5 mL volume of DPPH ethanolic solution was mixed with an equal volume of each sample concentration (0.03 to 1 mg/mL), shaken strongly and incubated at room temperature for 1 h in darkness. The absorbance of the residual DPPH radicals was measured at 519 nm and compared to that of the control (without the tested compound). DPPH radical scavenging was calculated using the following formula: Scavenging effect (%) = (1 − Acompound/AControl) × 100, where Acompound and Acontrol are the absorbances of the tested compound and of the control, respectively. A plot of the scavenging effect (%) versus the sample concentration was also performed to determine the compound concentration providing 50% inhibition (IC50).

HCT-116 cells = assay: Cell viability (cytotoxicity, LDH release) assay; type: cell-based; settings: Homo sapiens, 24 h; for viability at 100 µg/mL: read-out: percent of viable cells
Experimental: The synthesized compounds were also examined at four concentrations (10, 25, 50 and 100 µg/mL) for their cytotoxic effects on human colorectal cancer HCT-116 cells after their incubation together for 24 h.
Cytotoxic potency was examined for a human colon cancer cell line HCT-116 (American Type Culture Collection; Manassas, VA, USA) using various amounts of each compound (10, 25, 50 and 100 µg). Samples were diluted in Dulbecco’s Modified Eagle’s Medium, consisting of 10% Fetal Bovine Serum, and added to cells grown and cultured for 24 h in a 5% CO2-humidified incubator at 37 °C. Then, the activity of lactate dehydrogenase released from damaged cells was determined in the collected supernatant aliquots using an ELISA endpoint assay (Benchmark Plus, Bio-Rad, Hercules, CA, USA). As positive and negative controls, respectively, 0.1% Triton X-100 in the assay medium and the assay medium only were used. Cell viability, shown as mean values ± SDs (n = 3), was expressed as a relative percentage of the OD values determined at 600 nm in compound-treated cells and the control.

[2] = tested on: P. aeruginosa (ATCC 27853); assay: Antibacterial viability (CFU) assay, IC50; type: cell-based; settings: Pseudomonas aeruginosa, ATCC27853
Experimental: (§1) The results for the in vitro antibacterial properties of the synthesized compounds against five Gram-positive and four Gram-negative human-pathogenic strains, which were assessed by both the agar diffusion method (based on inhibition zone (IZ)) and the broth dilution bioassay (for the determination of the half-maximal inhibitory concentration (IC50) values), using ampicillin as the reference antibiotic drug, are shown in Table 2 and Table 3.
(§2) The antibacterial activity of all synthesized compounds was evaluated against the Gram-negative strains E. coli (ATCC 25966), K. pneumonia (ATCC 700603), P. aeruginosa (ATCC 27853) and S. enteric (ATCC 43972) and against the Gram-positive strains B. cereus (ATCC 14579), B. subtilis (ATCC 6633), E. faecalis (ATCC 29122), S. aureus (ATCC 25923) and S. epidermidis (ATCC 14990), using the agar diffusion method through measuring the appearance of the inhibition zone on the surface of the top agar, as reported by Berghe and Vlietinck. Ampicillin (10 µg/well) was used as the positive reference standard. Bacterial viability was also investigated by determining the colony-forming ability (CFU) of bacteria incubated at different time intervals without or with appropriate amounts of the compound, which were mixed with 2 ×10^7 CFU/mL in sterile BHI and incubated under shaking for 60 min at 37 °C. Samples were serially diluted into sterile BHI, streaked onto media agar plates and incubated for 24 h at 37 °C. The antibacterial potency of the tested compounds was expressed as the residual number of CFUs with reference to the initial inoculums. The results presented as the half-maximal (50 %) inhibitory concentration (IC50) values are the means of three different measurements.

E. faecalis (ATCC 29122) [3] = assay: Antibacterial viability (CFU) assay, IC50; type: cell-based; settings: Enterococcus faecalis, ATCC29122
Experimental: as §1, §2

S. enteric (ATCC 43972) = assay: Antibacterial viability (CFU) assay, IC50; type: cell-based
Experimental: as §1, §2

[4] = tested on: K. pneumonia (ATCC 700603); assay: Antibacterial viability (CFU) assay, IC50; type: cell-based; settings: Klebsiella pneumoniae, ATCC700603
Experimental: as §1, §2

E. coli (ATCC 25966) [5] = assay: Antibacterial viability (CFU) assay, IC50; type: cell-based; settings: Escherichia coli, ATCC25966; E. coil (ATCC 25966)
Experimental: as §1, §2

[6] = tested on: S. epidermidis (ATCC 14990); assay: Antibacterial viability (CFU) assay, IC50; type: cell-based; settings: Staphylococcus epidermidis, ATCC14990
Experimental: as §1, §2

B. cereus (ATCC 14579) [7] = assay: Antibacterial viability (CFU) assay, IC50; type: cell-based; settings: Bacillus cereus, ATCC14579
Experimental: as §1, §2

S. aureus (ATCC 25923) [8] = assay: Antibacterial viability (CFU) assay, IC50; type: cell-based; settings: Staphylococcus aureus, ATCC25923
Experimental: as §1, §2

B. subtilis (ATCC 6633) [9] = assay: Antibacterial viability (CFU) assay, IC50; type: cell-based; settings: Bacillus subtilis, ATCC6633, B. subtilis (ATCC 6633)
Experimental: as §1, §2

[10] = tested on: P. aeruginosa (ATCC 27853); assay: Antibacterial agar diffusion method (inhibition zone); type: cell-based
Experimental: as §1, §2

E. faecalis (ATCC 29122) [11] = assay: as above; type: cell-based
Experimental: as §1, §2

[12] = tested on: K. pneumonia (ATCC 700603); assay: as above; type: cell-based
Experimental: as §1, §2

E. coli (ATCC 25966) [13] = assay: as above; type: cell-based; settings: E. coil (ATCC 25966)
Experimental: as §1, §2

[14] = tested on: S. epidermidis (ATCC 14990); assay: as above; type: cell-based
Experimental: as §1, §2

B. cereus (ATCC 14579) [15] = assay: as above; type: cell-based
Experimental: as §1, §2

S. aureus (ATCC 25923) [16] = assay: as above; type: cell-based
Experimental: as §1, §2

B. subtilis (ATCC 6633) [17] = assay: as above; type: cell-based
Experimental: as §1, §2

[18] = Reducing power assay (FRAC, Fe3+ to Fe2+); settings: 0-1 mg/mL, absorbance 700 nm
Experimental: Secondly, FRAC was determined over the concentration range of 0.0−1 mg/mL via monitoring Fe^3+−Fe^2+ transformation in the presence of the studied compounds and the reference antioxidant BHT to estimate the values of efficient concentration (EC50), expressed in mM.
The reducing power of the studied compounds was assessed according to Oyaizu’s method. Briefly, different concentrations (ranging from 0 to 1 mg/mL) of each tested compound were first mixed with 1 mL of 0.2 M sodium phosphate buffer (pH 6.6) and 1 mL of 1% potassium ferricyanide (K3Fe(CN)6) and incubated at 50 °C for 20 min. After the addition of 1.25 mL of 20% trichloroacetic acid (TCA), the mixture was centrifuged for 10 min at 3000 rpm and the upper layer solution was then mixed with 0.5 mL of 0.1% fresh ferric chloride and an equal volume of deionized water. Finally, the absorption of the resulting mixture was measured at 700 nm using a UV spectrophotometer against distilled water as the blank, while butylated hydroxytoluene (BHT) was used as a positive control. The sample ferric reducing power capability was indicated by increased absorbance.

Row | SMILES | IC50 [1] [mM] | DPPH Radical Scavenging Effenciency (%) at 1 mg/mL [1] | melting point [°C] | viability at 100 µg/mL (HCT-116 cells) [%] | IC50 [2] [µM] | IC50 (E. faecalis (ATCC 29122) [3]) [µM] | IC50 (S. enteric (ATCC 43972); read-out: IC50) [µM] | IC50 [4] [µM] | IC50 (E. coli (ATCC 25966) [5]) [µM] | IC50 [6] [µM] | IC50 (B. cereus (ATCC 14579) [7]) [µM] | IC50 (S. aureus (ATCC 25923) [8]) [µM] | IC50 (B. subtilis (ATCC 6633) [9]) [µM] | IZ (mm) [10] [mm] | IZ (mm) (E. faecalis (ATCC 29122) [11]) | IZ (mm) [12] [mm] | IZ (mm) (E. coli (ATCC 25966) [13]) | IZ (mm) [14] | IZ (mm) (B. cereus (ATCC 14579) [15]) | IZ (mm) (S. aureus (ATCC 25923) [16]) | also measured
1 | CCOC(=O)C1=C(C)OC(N)=C(C#N)C1c1cccc(OC)c1[N+](=O)[O-] (centres unmarked) [4b, 6-Amino-5-cyano-4-(3-methoxy-2-nitro-phenyl)-2-methyl-4H-pyran-3-carboxylic acid ethyl ester] | 2.56 ± 0.117 | 23.25 ± 1.06% | 220 to 222 | 11 to 32.5 | 84 ± 5.01 | 56.8 ± 1.59 | 118 ± 3.34 | 99.1 ± 2.5 | 100 ± 3.9 | 32.4 ± 1.39 | 43.1 ± 1.98 | 50.2 ± 1.39 | 49.1 ± 1.39 | 2.5 ± 0.7 | 15.50 ± 0.71 mm | 1.5 ± 0.7 | 2.5 ± 0.71 | 23.50 mm and 23.50 ± 0.71 mm | 16.50 ± 0.71 mm | 20.50 ± 0.71 mm | IC50 (HCT-116 cells; read-out: Mean IC50 (µM) of cytotoxicity): 102 ± 8.83 µM; IC50 (HCT-116 cells; read-out: Mean IC50 (µg/mL) of cytotoxicity): 36.5 ± 3.18 µg/mL; IZ (mm) (B. subtilis (ATCC 6633) [17]): 19.50 ± 0.71 mm; EC50 [18]: 1200 ± 79 µM
2 | CCOC(=O)C1=C(C)OC(N)=C(C#N)C1c1cccc(O)c1Cl (centres unmarked) [4g, 6-Amino-4-(2-chloro-3-hydroxy-phenyl)-5-cyano-2-methyl-4H-pyran-3-carboxylic acid ethyl ester] | 0.329 ± 0.042 | 90.50% and 90.50 ± 2.12% | 212 to 213 | 86 | 54.1 ± 4.48 | 31.8 ± 1.49 | 53 ± 3.29 | 61.8 ± 2.99 | 61.8 ± 5.38 | 30.3 ± 1.49 | 29.4 ± 1.49 | 27.8 ± 1.25 | 25.7 ± 1.7 | 13.5 ± 0.7 | 24.50 mm and 24.50 ± 0.71 mm | 11.5 ± 0.7 | 11.0 ± 1.41 | 29.75 mm and 29.75 ± 0.35 mm | 29.00 mm and 29.00 ± 1.41 mm | 27.50 mm and 27.50 ± 0.71 mm | IC50 (S. enteric (ATCC 43972)): 54.1 µM; IZ (mm) (B. subtilis (ATCC 6633) [17]): 28.00 mm and 28.00 ± 1.41 mm; EC50 [18]: 72 ± 4 µM
